Data as given in the supplement of paper PMC5412046.
Structures can show the parent of a compound that is named as a salt.

These molecules were tested on SB.msgc-1 (assay: AC50 for growth inhibition (viability) (log10 M); higher = less potent). Settings: SB.msgc-1 (sporadic gastric cancer).
Summary of the method: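 Gastric cancer cells from hereditary or sporadic patients, 500 per 1536 well, were exposed to compound for 48 h over 11 threefold dilutions from a final 46 μM. CellTiter-Glo luminescence, read on a ViewLux, measured viability, which was normalised to DMSO. The log half-maximal activity concentration came from four-parameter fits, and only high-quality curve classes were kept.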

**Q.** How did the “AC50 for growth inhibition (log10 M)” value turn out when `CC1=C(/C=C/C(C)=C/C=C/C(C)=C/C=C/C=C(C)/C=C/C=C(C)/C=C/C2=C(C)CCCC2(C)C)C(C)(C)CCC1` [beta-Carotene] was run?
**A.** Its value is -4.88.

**Q.** `O=[S+]([O-])(NCCNC/C=C/c1ccc(Br)cc1)c1cccc2cnccc12` [H-89] was tested. Which “AC50 for growth inhibition (log10 M)” value did it give?
**A.** The value was -4.73.

**Q.** With `COc1cccc2cc(-c3nc(C4CCC(C(=O)O)CC4)n4ncnc(N)c34)[nH]c12` (configuration not stated) [OSI-027] as the molecule, how does the “AC50 for growth inhibition (log10 M)” value read?
**A.** The value was -5.33.

**Q.** `O=[S+]([O-])(O)c1ccc2cc(/N=N/c3cc([S+](=O)([O-])O)c4cccnc4c3O)ccc2c1` was tested. Which “AC50 for growth inhibition (log10 M)” value did it give?
**A.** Its value is -4.93.

**Q.** `NC/1=N/[C@]2(COC[C@H]2CS1)C3=CC(=CC=C3F)NC(=O)C4=NC=C(F)C=C4` was tested. Which “AC50 for growth inhibition (log10 M)” value did it give?
**A.** The value was -5.48.

**Q.** For `COc1ccc(-c2ccc3ncc4c(c3c2)n(-c2ccc(N3CCNCC3)c(C(F)(F)F)c2)c(=O)n4C)cn1` [NVP-BGT226], which “AC50 for growth inhibition (log10 M)” value is on record?
**A.** Its value is -5.58.

**Q.** With `Nc1nccc(-c2ccc3noc(-c4ccc(Cl)cc4)c3c2)n1` [Pim 1 inhibitor 2] as the molecule, how does the “AC50 for growth inhibition (log10 M)” value read?
**A.** The value was -5.03.

**Q.** How did the “AC50 for growth inhibition (log10 M)” value turn out when `CC1=CC=CC=C1N2\C(=N/C3=C(C(=CC=C3)C)C2=O)C[N]4C=NC5=C4N=CN=C5N` was run?
**A.** Its value is -6.23.

**Q.** With `CCN(CC)CCOc1ccc(Cc2ccccc2)cc1` [Tesmilifene hydrochloride] as the molecule, how does the “AC50 for growth inhibition (log10 M)” value read?
**A.** The value was -5.18.

**Q.** `C[N]1C=C(C=N1)C2=C3\C=N/NC(=O)C4=C3C(=CC(=C4)NC(=O)[C@H](N)C5CCCCC5)[NH]2` was tested. Which “AC50 for growth inhibition (log10 M)” value did it give?
**A.** Its value is -5.63.

**Q.** With `CN1CCN(CCOc2cc(OC3CCOCC3)c3c(Nc4c(Cl)ccc5c4OCO5)ncnc3c2)CC1` [Saracatinib] as the molecule, how does the “AC50 for growth inhibition (log10 M)” value read?
**A.** The value was -5.88.

**Q.** `CCOC(=O)[C@H](CCc1ccccc1)N[C@H]1CS[C@H](c2cccs2)CN(CC(=O)O)C1=O.Cl` [Temocapril hydrochloride] was tested. Which “AC50 for growth inhibition (log10 M)” value did it give?
**A.** The value was -5.88.

**Q.** With `c1nc2c(NC3CCCCC3)nc(Nc3ccc(N4CCOCC4)cc3)nc2[nH]1` [Reversine] as the molecule, how does the “AC50 for growth inhibition (log10 M)” value read?
**A.** The value was -4.73.

**Q.** `COc1cc2c(cc1OC)CN(CCc1ccc(NC(=O)c3cc(OC)c(OC)cc3NC(=O)c3cnc4ccccc4c3)cc1)CC2` [Tariquidar] was tested. Which “AC50 for growth inhibition (log10 M)” value did it give?
**A.** The value was -5.08.

**Q.** For `Cc1cn(-c2cc(NC(=O)c3ccc(C)c(Nc4nccc(-c5cccnc5)n4)c3)cc(C(F)(F)F)c2)cn1` [Nilotinib], which “AC50 for growth inhibition (log10 M)” value is on record?
**A.** Its value is -4.83.

**Q.** `CC/1=C/C(=O)N(O)/C(=C1)C2CCCCC2` [ciclopirox] was tested. Which “AC50 for growth inhibition (log10 M)” value did it give?
**A.** The value was -5.43.

**Q.** Which “AC50 for growth inhibition (log10 M)” value does the source give for `C[C@]1(CO)CN(c2cc(C(=O)Nc3ccc4c(c3)-c3c(c(C(N)=O)nn3-c3ccc(F)cc3)CC4)c(Cl)cn2)C[C@@]1(C)CO` [PF-184] here?
**A.** The value was -5.08.

**Q.** How did the “AC50 for growth inhibition (log10 M)” value turn out when `CC(C)C[C@H](NC(=O)[C@@H](NC(=O)c1cccc(-c2ccccc2)n1)[C@@H](C)O)B(O)O` [Delanzomib] was run?
**A.** Its value is -7.43.

**Q.** For `CN1CCN(CC1)C2=CC3=C([NH]C(=N3)C/4=C(\N)C5=C(F)C=CC=C5NC4=O)C=C2` [Dovitinib], which “AC50 for growth inhibition (log10 M)” value is on record?
**A.** The value was -4.73.

**Q.** How did the “AC50 for growth inhibition (log10 M)” value turn out when `CCOc1ccccc1N/N=C1/C(=O)N(c2nc(-c3ccccc3)cs2)N=C1C` [BAM7] was run?
**A.** The value was -5.48.

**Q.** For `O=C(NCCCNc1nc(Nc2cccc(NC(=O)N3CCCC3)c2)ncc1I)c1cccs1` [BX-795], which “AC50 for growth inhibition (log10 M)” value is on record?
**A.** The value was -4.88.

**Q.** For `CCCCc1oc2ccc(NS(C)(=O)=O)cc2c1C(=O)c1ccc(OCCCN(CCCC)CCCC)cc1` [Dronedarone], which “AC50 for growth inhibition (log10 M)” value is on record?
**A.** Its value is -4.63.

**Q.** How did the “AC50 for growth inhibition (log10 M)” value turn out when `ClC1=CC=C(CCCOC/2=N/NC(=O)C(=C2NCC3=CN=CC=C3)/Br)C=C1` [Parogrelil] was run?
**A.** The value was -4.83.

**Q.** Which “AC50 for growth inhibition (log10 M)” value does the source give for `NC/1=N/C(=O)N(/C=N1)[C@@H]2O[C@H](CO)[C@@H](O)[C@H]2O` [5-Azacitidine] here?
**A.** The value was -5.53.

**Q.** How did the “AC50 for growth inhibition (log10 M)” value turn out when `O=C1CSC(=O)N1C(CCc1ccncc1)COc1ccc(-c2cccc([N+](=O)[O-])c2)cc1` (configuration not stated) was run?
**A.** The value was -5.78.

**Q.** How did the “AC50 for growth inhibition (log10 M)” value turn out when `COc1ccc(-c2ccc3cc(C(=O)O)ccc3c2)cc1C12CC3CC(CC(C3)C1)C2` [Adapalene] was run?
**A.** Its value is -5.23.

**Q.** For `CCCCc1ccc(N[S+](=O)([O-])c2ccc(C)c(C(=O)N3CCN(c4cccc(C)c4C)CC3)c2)cc1` [IDH-001], which “AC50 for growth inhibition (log10 M)” value is on record?
**A.** Its value is -4.68.

**Q.** How did the “AC50 for growth inhibition (log10 M)” value turn out when `C=C1/C(=C\C=C2/CCC[C@]3(C)[C@@H]([C@H](C)/C=C/[C@H](C)C(C)C)CC[C@@H]23)C[C@@H](O)C[C@@H]1O` [Doxercalciferol] was run?
**A.** Its value is -6.23.

**Q.** With `CO[C@H]1/C=C\C=C(\C)C(=O)NC2=CC(=O)C(NCCN(C)C)=C(C[C@@H](C)C[C@H](OC)[C@H](O)[C@@H](C)/C=C(/C)[C@@H]1OC(N)=O)C2=O` [Alvespimycin hydrochloride] as the molecule, how does the “AC50 for growth inhibition (log10 M)” value read?
**A.** The value was -6.83.

**Q.** `COc1ccc(/C=C\c2cc(OC)c(OC)c(OC)c2)cc1O` [Combretastatin A-4] was tested. Which “AC50 for growth inhibition (log10 M)” value did it give?
**A.** Its value is -5.23.

**Q.** Which “AC50 for growth inhibition (log10 M)” value does the source give for `O=C(NCc1ccccc1)c1csc(Nc2ccncn2)n1` [Thiazovivin] here?
**A.** The value was -4.78.

**Q.** For `OC1=C(C=CC=C1)C2=CC=C(C=C2)C3=CSC4=C3C(=C(/C#N)C(=O)N4)/O`, which “AC50 for growth inhibition (log10 M)” value is on record?
**A.** Its value is -4.78.

**Q.** How did the “AC50 for growth inhibition (log10 M)” value turn out when `CNC(=O)c1nn(C)c2c1C(C)(C)Cc1cnc(Nc3ccc(N4CCN(C)CC4)cc3)nc1-2` [Milciclib] was run?
**A.** The value was -5.88.

**Q.** For `COc1c(C)c2c(c(O)c1C/C=C(\C)CCC(=O)O)C(=O)OC2` [Mycophenolic acid], which “AC50 for growth inhibition (log10 M)” value is on record?
**A.** The value was -5.93.

**Q.** Which “AC50 for growth inhibition (log10 M)” value does the source give for `CN(C)[S+](=O)([O-])c1ccc2c(c1)C(=Cc1cc3c([nH]1)CCCC3)C(=O)N2` [SU-6656] here?
**A.** The value was -5.43.

**Q.** How did the “AC50 for growth inhibition (log10 M)” value turn out when `Nc1ncnc2c1ncn2[C@@H]1O[C@H](CO)[C@@H](O)[C@H]1O` [Adenosine] was run?
**A.** Its value is -5.58.

**Q.** With `CN(C)CCOc1ccc(/C(=C(/CCCl)c2ccccc2)c2ccccc2)cc1` [Toremifene] as the molecule, how does the “AC50 for growth inhibition (log10 M)” value read?
**A.** Its value is -4.63.

**Q.** Which “AC50 for growth inhibition (log10 M)” value does the source give for `Cn1cc(CNCC2CCN(c3ncc(C(=O)NO)cn3)CC2)c2ccccc21` [Quisinostat hydrochloride] here?
**A.** Its value is -7.23.

**Q.** Which “AC50 for growth inhibition (log10 M)” value does the source give for `CCC(CCCC)COC(=O)C(\C#N)=C(\c1ccccc1)c2ccccc2` (configuration not stated) [Octocrylene] here?
**A.** The value was -4.88.

**Q.** Which “AC50 for growth inhibition (log10 M)” value does the source give for `CN[C@@H]1C[C@H]2O[C@@](C)([C@@H]1OC)n1c3ccccc3c3c4c(c5c6ccccc6n2c5c31)C(=O)N[C@H]4O` [7-Hydroxystaurosporine] here?
**A.** The value was -5.93.

**Q.** For `COc1cc2c(Nc3ccc(Br)cc3F)ncnc2cc1OCC1CCN(C)CC1` [Vandetanib], which “AC50 for growth inhibition (log10 M)” value is on record?
**A.** Its value is -4.73.

**Q.** `CN1\C(=C(O)/C2=C(C=C(Cl)S2)[S+]1([O-])=O)C(=O)NC3=NC=CC=C3` [Lornoxicam] was tested. Which “AC50 for growth inhibition (log10 M)” value did it give?
**A.** The value was -5.43.

**Q.** With `NC1(Cc2ccc(Cl)cc2)CCN(c2ncnc3[nH]ccc23)CC1` as the molecule, how does the “AC50 for growth inhibition (log10 M)” value read?
**A.** The value was -4.78.

**Q.** Which “AC50 for growth inhibition (log10 M)” value does the source give for `CC(C)C[C@H](NC(=O)CNC(=O)c1cc(Cl)ccc1Cl)B(O)O` [Ixazomib] here?
**A.** The value was -7.03.

**Q.** For `C[C@@H]\1COC(=N1)\NC2=CC3=C(C=C2)N=CN=C3NC4=CC(=C(OCC5=NC=CS5)C=C4)Cl` [Varlitinib tosylate], which “AC50 for growth inhibition (log10 M)” value is on record?
**A.** The value was -6.53.

**Q.** With `CN(C)CCCN1c2ccccc2CCc2ccc(Cl)cc21` [Clomipramine hydrochloride] as the molecule, how does the “AC50 for growth inhibition (log10 M)” value read?
**A.** The value was -5.93.

**Q.** How did the “AC50 for growth inhibition (log10 M)” value turn out when `Cc1ccc([S+](=O)([O-])N[C@@H](Cc2ccccc2)C(=O)CCl)cc1` [TPCK] was run?
**A.** The value was -4.73.

**Q.** How did the “AC50 for growth inhibition (log10 M)” value turn out when `O=C(Nc1ccc(F)c(C(F)(F)F)c1)Nc1nnc(-c2ccncc2)s1` was run?
**A.** Its value is -5.28.

**Q.** Which “AC50 for growth inhibition (log10 M)” value does the source give for `Cc1nc(NC(=O)N2CCC[C@H]2C(N)=O)sc1-c1csc(C(C)(C)C)n1` [A-66] here?
**A.** The value was -6.53.

**Q.** How did the “AC50 for growth inhibition (log10 M)” value turn out when `COc1cc(Nc2ncc(F)c(Nc3ccc4c(n3)N(COP(=O)(O)O)C(=O)C(C)(C)O4)n2)cc(OC)c1OC` [Fostamatinib disodium] was run?
**A.** The value was -5.93.

**Q.** `COc1cc2nccc(Oc3ccc(NC(=O)NC4CC4)c(Cl)c3)c2cc1C(N)=O` [Lenvatinib] was tested. Which “AC50 for growth inhibition (log10 M)” value did it give?
**A.** The value was -5.48.

**Q.** `COc1cc(C)c(Sc2cnc(NC(=O)c3ccc(CNC(C)C(C)C)cc3)s2)cc1C(=O)N1CCN(C(C)=O)CC1` (configuration not stated) [ITK inhibitor] was tested. Which “AC50 for growth inhibition (log10 M)” value did it give?
**A.** The value was -4.73.
